Results published in the supplement of paper PMC11061612.

Assays:
[1] = system: CAPAN-2 (Pancreatic Carcinoma); experiment: Bliss excess, mean over the matrix (fraction); higher = more synergy
In short: (§1)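 Cell lines in DMEM/F12 or RPMI with 10% FBS were plated in 1536-well plates, held 24 hours at 37°C, 5% CO2, then given two-drug dose matrices for 72 hours (DMSO typically 0.2%). Viability was read by CellTiter-Glo 2.0 luminescence and scaled as inhibition from 0 (vehicle wells) to 1 (blank wells). Combination Emax is the second-highest inhibition in the matrix; Bliss excess is observed combination effect minus expected EA + EB − EA·EB, EA and EB being single-agent effects.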

[2] = system: ECC10 (Gastric Carcinoma); experiment: as above
In short: as §1
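Note: after 72 h of two-drug dosing.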

CS(=O)(=O)CCNCc1ccc(-c2ccc3ncnc(Nc4ccc(OCc5cccc(F)c5)c(Cl)c4)c3c2)o1 [Lapatinib] + NC1(c2ccc(-c3nc4ccn5c(=O)[nH]nc5c4cc3-c3ccccc3)cc2)CCC1 [MK-2206] (first compound max 10 µM, 7x7, partner max 10 µM)
Bliss excess [1]: -0.0098 | Bliss excess [2]: 0.0211
